Patent US20230174523A1, “BENZENESULFONAMIDE DERIVATIVES AS TRAP1 MODULATORS AND USES THEREOF” (Amathus Therapeutics, Inc., priority 2020, published 2023)

Assays:
[1] = target: T1, nanoLuc TRAP1 (Homo sapiens, UniProt Q12931); test: In-cell target engagement assay (NanoBRET) in SHSY5Y cells; type: cell-based; details: tracer probe-385, 1 μM; live SHSY5Y cells; FIG. 4
T1 construct: expressed in transfected cells; host or cells: SHSY5Y cells, transient transfection with FuGENE HD
T1 sequence (Q12931 60-704): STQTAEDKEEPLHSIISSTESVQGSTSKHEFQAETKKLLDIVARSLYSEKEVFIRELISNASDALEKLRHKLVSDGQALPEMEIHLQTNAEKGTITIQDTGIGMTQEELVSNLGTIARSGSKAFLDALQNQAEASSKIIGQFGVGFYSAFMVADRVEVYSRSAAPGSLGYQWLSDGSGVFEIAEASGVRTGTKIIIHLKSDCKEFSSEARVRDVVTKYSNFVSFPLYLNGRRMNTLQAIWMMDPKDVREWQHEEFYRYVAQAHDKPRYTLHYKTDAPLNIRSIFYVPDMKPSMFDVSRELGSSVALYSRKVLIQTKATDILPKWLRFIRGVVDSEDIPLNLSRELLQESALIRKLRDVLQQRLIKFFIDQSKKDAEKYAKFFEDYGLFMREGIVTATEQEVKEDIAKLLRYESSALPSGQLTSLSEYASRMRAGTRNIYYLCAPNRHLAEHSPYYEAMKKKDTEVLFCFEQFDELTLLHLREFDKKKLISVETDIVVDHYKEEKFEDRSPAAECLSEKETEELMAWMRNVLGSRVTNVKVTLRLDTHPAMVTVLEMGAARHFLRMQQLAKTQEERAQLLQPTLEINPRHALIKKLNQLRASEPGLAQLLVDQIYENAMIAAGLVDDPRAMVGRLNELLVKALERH
Experimental: In-cell target engagement assays were performed as described in Robers M. B. et al. (2019) Quantitative, Real-Time Measurements of Intracellular Target Engagement Using Energy Transfer. In: Ziegler S., Waldmann H. (eds) Systems Chemical Biology. Methods in Molecular Biology, vol 1888. Humana Press, New York, N.Y.; Machleidt et al., ACS Chem. Biol. 2015, 10, 8, 1797-1804; or Vasta et al., Cell Chemical Biology 25, 206-214, Feb. 15, 2018; or as described herein.
Below is a protocol for transient transfection of SHSY5Y cells with NanoLuc® fusions. • 1. Cultivate SHSY5Y cells appropriately prior to assay in MEM w NEAA supplemented with 10% FBS. • 2. Remove medium from cell flask via aspiration, trypsinize, and allow cells to dissociate from the flask. • 3. Neutralize trypsin using growth medium and pellet cells via centrifugation at 200 g for 5 minutes. • 4. Aspirate medium and re-suspend cells into a single cell suspension using complete cell culture medium. • 5. Adjust the cell density to 300K/mL in cell culture medium in a sterile, conical tube. • 6. Prepare lipid:DNA complexes as follows (this covers two assay plates, adjust numbers for more plates) • a. Prepare a 10 μg/mL solution of DNA in Opti-MEM without serum. This solution should contain the following ratios of carrier DNA and DNA encoding NanoLuc® fusion. • i. 5.0 μg/mL of Transfection Carrier DNA (pGEM) • ii. […]

[2] = system: mIMCD3 Pkd1−/− cells; test: Mouse cell derived cyst assay; type: cell-based; details: PKD KO mouse cell derived cyst forming assay; FIG. 13
Experimental: Mouse cell derived cyst assays were performed as described in Booij, Tijmen H et al., SLAS discovery: advancing life sciences R & D vol. 22.8 (2017): 974-984, or as described below.
Murine inner medullary collecting duct cell line (mIMCD3 Pkd1^−/− cells) • mIMCD3 Pkd1 KO cells were seeded in 384 wells plates in extracellular matrix. • 4 days after seeding, cultures were co-exposed to treatments and stimuli (2.5 μM forskolin); • After 72 h, cultures were fixed, stained for nuclei and actin cytoskeleton and imaged with 4× magnification; and • Image analysis of the 3D stack was done using Ominer™ image analysis software.

Cc1nn(C)c2sc(C(=O)Nc3ccc(F)c(S(=O)(=O)Nc4ccc(Cl)cc4)c3)cc12 [Compound 705]
displacement of the nanoBRET tracer molecule from nanoLuc TRAP1 [1]: displacing the nanoBRET tracer molecule | cyst formation [2]: preventing cyst formation
